Converted amounts (≈) assume the structure as drawn. “And” between values parts separate entries of the source, which are not always exact repeats. Equal entries are not always repeated.
Legend:
[1] = system: Vero monkey kidney cells; assay: Cytotoxicity, Resazurin assay; assay type: cell-based; settings: for cytotoxicity to Vero cells: FIG. 4; for selectivity index (SI): ratio CC50:MIC as stated in text b128 (fits BACTEC MIC); for SI (selectivity index): ratio CC50:MIC, Table 1 (agar dilution MIC)
Description: (§1) Cytotoxicity Studies: The compounds for cytotoxicity were tested in an in vitro model for toxicity with Vero monkey kidney cells using Resazurin assay. […] Cells were exposed to dilutions of experimental and control drugs in triplicate for […] with each compound at a range of concentrations from 100-1.56 μg/ml. […] Each well had 100 μL of the test material in serially descending concentrations. After 72 h of incubation, 10 μL of Resazurin indicator solution (0.1%) was added and incubation was continued for 4-5 h. Any color change from purple to pink or colorless was recorded as positive. Fluorescence was measured of each sample with excitation wavelength at 530 nm and emission wavelength at 590 nm using the BMG Polar Star Galaxy. The CC50 values (50% inhibitory concentrations) were calculated by plotting fluorescence values using Microsoft excel template. The data from this toxicity testing and MIC values were used to calculate a selectivity index (SI), the ratio of CC50: MIC.

[2] = Cytotoxicity, Resazurin assay; assay type: cell-based, monkey; settings: monkey, Resazurin assay, 72 h; read-out: In vitro cytotoxicity Vero cells CC50
Description: as §1

[3] = system: M. tuberculosis H37Rv; assay: BACTEC-460TB radiometric assay, MIC and growth index; assay type: cell-based, Mycobacterium tuberculosis; settings: for Mtb growth inhibition, growth index (GI) vs days: day 1 to day 11, FIG. 5; for MIC: Mycobacterium tuberculosis, H37RV, BACTEC-460TB radiometric assay, read-out: Mtb H37Rv MIC (BACTEC)
[4] = system: M. tuberculosis H37Rv; assay: Agar dilution assay (ADA), MIC; assay type: cell-based, Mycobacterium tuberculosis; settings: for MIC / Mtb H37Rv MIC: 37° C., 4 weeks; for MIC: read-out: Mtb H37Rv MIC; for anti-TB activity relative to the drug NTZ (times better / more potent): MIC compared with NTZ MIC 52.12 μM
[5] = system: replicating and nonreplicating Mtb; settings: cited from earlier work
[6] = Mycobacterium tuberculosis, H37RV, 672 h

Row | Structure (SMILES) | MIC [4, 6] | melting point [°C] | also measured
1 | COc1ccc(-c2csc(NN=C3CCCc4c(OC)cccc43)n2)cc1OC [Compound 1a, 4-(3,4-dimethoxyphenyl)-2-(2-(5-methoxy-3,4-dihydronaphthalen-1(2H)-ylidene)hydrazinyl)-thiazole] | 15.3 µM and 6.25 µg/mL | 200 | cytotoxicity to Vero cells ([1]; Resazurin assay): failed to show any cytotoxicity; selectivity index (SI) [1]: ≥ 39; SI (selectivity index) [1]: ≧16; CC50 at 72 h [2]: > 244 µM; Mtb growth inhibition, growth index (GI) vs days ([3]; 6.25 μM): very effective for inhibiting the Mtb growth till day 11; MIC [3]: 6.25 µM (≈ 2.56 µg/mL)
2 | COc1cccc2c1CCCC2=NNc1nc(-c2ccc(Cl)cc2Cl)cs1 [Compound 1b, 4-(2,4-dichlorophenyl)-2-(2-(5-methoxy-3,4-dihydronaphthalen-1(2H)-ylidene)hydrazinyl)thiazole] | 29.9 µM and 12.5 µg/mL | 200 | anti-TB activity relative to the drug NTZ (times better / more potent) [4]: about 2 times
3 | COc1cccc2c1CCCC2=NNc1nc(-c2ccc(F)cc2)cs1 [Compound 1c, 4-(4-fluorophenyl)-2-(2-(5-methoxy-3,4-dihydronaphthalen-1(2H)-ylidene)hydrazinyl)thiazole] | 17 µM and 6.25 µg/mL | 198 | CC50 ([1]; Resazurin assay, 72 h, read-out: In vitro cytotoxicity Vero cells CC50): > 300 µM; cytotoxicity to Vero cells ([1]; Resazurin assay): failed to show any cytotoxicity; selectivity index (SI) [1]: ≥ 48; SI (selectivity index) [1]: ≧17; CC50 at 72 h [2]: > 244 µM; Mtb growth inhibition, growth index (GI) vs days ([3]; 6.25 μM): comparatively lesser effective on day 10 onwards; MIC [3]: 6.25 µM (≈ 2.3 µg/mL); MIC ([4]; listed as is): 17.03 µM
4 | COc1cccc2c1CCCC2=NNc1nc(-c2cccc([N+](=O)[O-])c2)cs1 [Compound 1d, 2-(2-(5-methoxy-3,4-dihydronaphthalen-1(2H)-ylidene)hydrazinyl)-4-(3-nitrophenyl)thiazole] | 31.7 µM and 12.5 µg/mL | 185 | anti-TB activity relative to the drug NTZ (times better / more potent) [4]: about 2 times
5 | COc1ccc(-c2csc(NN=Cc3cn(Cc4ccc(Cl)cc4Cl)c4ccccc34)n2)cc1OC [Compound 2a, 2-(2-((1-(2,4-dichlorobenzyl)-1H-indol-3-yl)methylene)hydrazinyl)-4-(3,4-dimethoxyphenyl)thiazole] | > 12.5 µg/mL | 205 | Mtb H37Rv MIC [4]: >12.50 µg/mL
6 | Clc1ccc(Cn2cc(C=NNc3nc(-c4ccc(Cl)cc4Cl)cs3)c3ccccc32)c(Cl)c1 [Compound 2b, 2-(2-((1-(2,4-dichlorobenzyl)-1H-indol-3-yl)methylene)hydrazinyl)-4-(2,4-dichlorophenyl)thiazole] | 22.9 µM and 12.5 µg/mL | 185 | 
7 | Fc1ccc(-c2csc(NN=Cc3cn(Cc4ccc(Cl)cc4Cl)c4ccccc34)n2)cc1 [Compound 2c, 2-(2-((1-(2,4-dichlorobenzyl)-1H-indol-3-yl)methylene)hydrazinyl)-4-(4-fluorophenyl)thiazole] | > 12.5 µg/mL | 198 | Mtb H37Rv MIC [4]: >12.50 µg/mL
8 | Fc1ccc(Nc2nc(-c3ccc(F)cc3)cs2)cc1 [Compound 6, N,4-bis(4-fluorophenyl)thiazol-2-amine] | 6.25 µM and 1.8 µg/mL | 127 | MIC [3]: 12.5 µM (≈ 3.6 µg/mL); Mtb growth inhibition, growth index (GI) vs days ([3]; ≧12.5 μM): effectively inhibit Mtb growth till day 11; anti-TB activity relative to the drug NTZ (times better / more potent) [4]: about 9 times
9 | COc1ccc(OC)c(Nc2nc(-c3ccc(F)cc3)cs2)c1 [Compound 7a, N-(2,5-dimethoxyphenyl)-4-(4-fluorophenyl)thiazol-2-amine] | > 12.5 µg/mL | 160 | 
10 | COc1ccc(OC)c(Nc2nc(-c3cccc([N+](=O)[O-])c3)cs2)c1 [Compound 7b, N-(2,5-dimethoxyphenyl)-4-(3-nitrophenyl)thiazol-2-amine] | > 12.5 µg/mL | 154 | 
11 | COc1ccc(-c2csc(Nc3cc(OC)ccc3OC)n2)cc1 [Compound 7c, N-(2,5-dimethoxyphenyl)-4-(4-methoxyphenyl)thiazol-2-amine] | > 12.5 µg/mL | 104 | 
12 | COc1ccc(-c2csc(Nc3ccccc3C(F)(F)F)n2)cc1OC [Compound 8a, 4-(3,4-dimethoxyphenyl)-N-(2-(trifluoromethyl)phenyl)thiazol-2-amine] | > 12.5 µg/mL | 188 | 
13 | Fc1ccc(-c2csc(Nc3ccccc3C(F)(F)F)n2)cc1 [Compound 8b, 4-(4-fluorophenyl)-N-(2-(trifluoromethyl)phenyl)thiazol-2-amine] | > 12.5 µg/mL | 184 | 
14 | O=[N+]([O-])c1cccc(-c2csc(Nc3ccccc3C(F)(F)F)n2)c1 [Compound 8c, 4-(3-nitrophenyl)-N-(2-(trifluoromethyl)phenyl)thiazol-2-amine] | > 12.5 µg/mL | 182 | 
15 | COc1ccc(-c2csc(Nc3ccccc3C(F)(F)F)n2)cc1 [Compound 8d, 4-(4-methoxyphenyl)-N-(2-(trifluoromethyl)phenyl)thiazol-2-amine] | > 12.5 µg/mL |  | 
16 | NNC(=O)c1ccncc1 [Isoniazid (INH), Isoniazid, reference compound] | < 1 µg/mL |  | 
17 | CC(=O)Oc1ccccc1C(=O)Nc1ncc([N+](=O)[O-])s1 [Nitazoxanide (NTZ), Nitazoxanide] |  |  | MIC ([5]; nonreplicating Mtb): 60.38 μM and 16 μg/mL
18 | [H]/N=C(/N)N[C@H]1[C@H](O)[C@@H](O)[C@H](O[C@@H]2O[C@@H](C)[C@](O)(C=O)[C@H]2O[C@@H]2O[C@@H](CO)[C@H](O)[C@@H](O)[C@@H]2NC)[C@@H](N/C(N)=N\[H])[C@@H]1O [Streptomycin (SM), Streptomycin, reference compound] |  |  | MIC [3]: 6 µM (≈ 3.49 µg/mL)
19 | O=C(Nc1ncc([N+](=O)[O-])s1)c1ccccc1O [Tizaxonide (TIZ), Tizaxonide] |  |  | MIC of reference NTZ/TIZ, Mtb H37Rv ([5]; replicating Mtb, literature value listed with the agar dilution data): 60.38 μM and 16.00 μg/mL

From US20140235863A1, “SUBSTITUTED 4-ARYLTHIAZOLES AND PROCESS OF PREPARATION THEREOF” (priority 2011, published 2014)
